The values below come from patent US20260207633A1, “COMPOSITION COMPRISING POLAR LIPIDS AND METHOD OF MAKING SAME” (VAXA TECHNOLOGIES LTD, priority 2021, published 2026).

The structures appear in SMILES notation.

For data set [1], the system named is individuals with insomnia. Conditions: cited from earlier work.
Data set [2] deals with participants with poor sleeping quality (PSQI 11-13). Nature of the data set: Sleep quality tracked monthly with the Pittsburgh Sleep Quality Index (PSQI), 6 groups of 3 participants. It counts as in vivo, human. To be noted: for PSQI M3: global PSQI score at month 3; for PSQI M3 / PSQI M4: With CBD (daily dosage per group, the 2nd table r16-r22); for PSQI M4: global PSQI score at month 4; for ΔPSQI (%): improvement of PSQI from M0 to M4. The procedure:
Some experiment showing the effect of the combination of CBD and four different omega-3 compounds (Fish Oil (Non-polar DHA+EPA), Fish oil (Non-polar EPA), Schizochytrium Oil (Non-Polar DHA), Nannochloropsis Oil (polar EPA)) were conducted. Daily dosage of omega 3 (DHA and/or EPA) was […].
Materials: CBD: Fish oil (non-polar DHA+EPA), Schizochytrium Oil (non-polar DHA), Nannochloropsis Oil (polar-EPA), Fish oil (non-polar EPA).
Experimental Design: Sleep quality was the measured in this study, as an efficacy indication. The experiment included 6 groups (3 participants per group) 8 women and 10 men, with similar Pittsburgh Sleep Quality Index (PSQI) rating (11-13), indicating poor sleeping quality. The average age for the participants was 37.2. All 18 participants completed sleep assessments at the onset of CBD treatment and at the monthly follow-ups.
All participants were given CBD and/or Omega 3 every evening, after dinner, per table 1 below. Sleep quality was tracked on a monthly basis, for a period of up to 4 months, using the PSQI. This Index is a self-report measure that assesses the quality of sleep during a 1-month period. […] The PSQI measures several different aspects of sleep, offering seven component scores and one composite score. The component scores consist of subjective sleep quality, sleep latency (i.e., how long it takes to fall asleep), sleep duration, habitual sleep efficiency (i.e., the percentage of time in bed that one is asleep), sleep disturbances, use of sleeping medication, and daytime dysfunction.
Each item is weighted on a 0-3 interval scale. The global PSQI score was calculated by totaling the seven component scores, providing an overall score ranging from 0 to 21, where lower scores denote a healthier sleep quality. A higher number indicates more sleep-related concerns. A score of 5 or greater indicates a “poor sleeper”.

For the molecule `C=C(C)[C@@H]1CCC(C)=C[C@H]1c1c(O)cc(CCCCC)cc1O` [CBD, Cannabidiol], in data set [1] (high-dose (160 mg/day) CBD), the “frequency of arousals during the night” value is reported as “decreased the frequency of arousals during the night” and the total sleep time result is given as “increased total sleep time”. Also, the wakefulness entry in data set [1] (low-dose CBD) is recorded as “increased wakefulness”.

For `C=C(C)[C@@H]1CCC(C)=C[C@H]1c1c(O)cc(CCCCC)cc1O` [Group A, Cannabidiol], the “effect on PSQI score / sleep quality, in words” value in data set [2] (comparison between groups) is given as “more efficient that low-dose CBD in improving PSQI score”. Also, in data set [2], the “PSQI M3” value came to 6.7, the “PSQI M4” value was 4.6 and the “ΔPSQI (%)” value is reported as 62%. The Sedation entry in data set [2] (sedation effect Y/N during CBD treatment, listed as High-dose CBD) is given as “had a sedation effect”.

With `C=C(C)[C@@H]1CCC(C)=C[C@H]1c1c(O)cc(CCCCC)cc1O` [Group B, Cannabidiol], in data set [2], the “PSQI M3” value is on record as 11.3, the “PSQI M4” value amounted to 9.3 and the “ΔPSQI (%)” value is reported as 24%. Further, in data set [2] (months with CBD), the “improvement of PSQI score, months 3-4” value is given as ~ 18%.
